According to patent US20060204596A1, “Formulation of a mixture of Free-B-Ring flavonoids and flavans as a therapeutic agent” (Unigen Pharmaceuticals, Inc., priority 2005, published 2006):
Where two headings read alike, the source gives them in different places. Marks after values point to notes of the source that are not given here.

Key:
bleeding time [1] = experiment: bleeding time assay (Test #3, #4); format: in vivo, ICR male mice
Protocol: The bleeding time assay was conducted according to the method described by […] and Kling (1997) Thrombosis Research 10:619-622) and Butler et al. (1982) Thromb Haemostas 47:46-49. Test articles were administered to five ICR male mice one hour before standardized transection of the tip (1.0 mm) of each tail. The mice restrained in holders were immediately suspended vertically with the tail tips immersed in a test tube containing saline at 37° C. There was no maximum cut-off time set. The measurements started as actual bleeding was observed and stopped as bleeding ceased for 15 seconds or longer at any time. Data were analyzed using the Student's t-test. In one assay (Test #3), aspirin alone at 3, 10, 65 and 100 mg/kg or UP736 at a dose of 100 mg/kg, alone or in combination with aspirin at 3, 10 and 65 mg/kg was administered orally to groups of 5 ICR male mice. […] The assay was repeated under the same experimental conditions (Test # 4).

bleeding time [2] = system: bleeding time; parameters: species or system ICR derived male mice; conditions: male, ICR, mouse, in vivo, po, 1 h
Protocol: To verify the bleeding time results, UP736 or UP736 in combination with aspirin was tested again in an independent study (Test #5) using a modified procedure carried out. UP736 was administered orally at a dose of 100 mg/kg, alone or in combination with aspirin at 3, 10 and 30 mg/kg to groups of 5 ICR derived male mice, weighing 22±2 g, 1 hour before transection of the tip (0.3 mm) of each tail. In addition, aspirin alone at 3, 10, 30 and 100 mg/kg was similarly given to mice. The mice, in holders, were immediately suspended vertically with the distal 2 cm of each tail immersed in a test tube containing saline at 37° C. A maximum cut-off time of 180 seconds was set. If bleeding ceased for 15 seconds or longer at any time during the 180 seconds observation period, the measurements were discontinued and any subsequent bleeding would not be considered. Prolongation of bleeding time by 50 percent or more (50%) relative to a control group of animals was considered significant. The results are consistent with those obtained from the above-described experiments (Test #3 and # 4).

[3] = system: arachidonic acid induced platelet aggregation; experiment: platelet aggregation assay in platelet rich plasma; format: cell-based, New Zealand Rabbits; conditions: UP736 0
Protocol: UP736, aspirin or combinations thereof were dissolved in 0.3% DMSO and incubated with the plasma at 37° C. for 5 minutes. Agonist or antagonist effect of the compounds was quantified by optical density of aggregation. Significance criteria used for agonist effect is that >50% platelet aggregation relative to arachidonic acid response. […] In this assay, various concentrations of UP736 (10, 2 and 0.2 μM) and aspirin (30 and 3 μM) were tested individually as either agonist or antagonist of platelet aggregation in platelet rich rabbit plasma. […] In another assay (Test# 2) performed under the same experimental conditions, mixtures of UP736 at lower concentrations (0.2, 0.067, 0.022 and 0.007 μM) and aspirin at a concentration of 3 μM were tested.

COX-2 = target: T1, COX-2 (Homo sapiens, UniProt P35354); experiment: COX-2 enzymatic inhibition; format: biochemical
T1 sequence (P35354 18-604): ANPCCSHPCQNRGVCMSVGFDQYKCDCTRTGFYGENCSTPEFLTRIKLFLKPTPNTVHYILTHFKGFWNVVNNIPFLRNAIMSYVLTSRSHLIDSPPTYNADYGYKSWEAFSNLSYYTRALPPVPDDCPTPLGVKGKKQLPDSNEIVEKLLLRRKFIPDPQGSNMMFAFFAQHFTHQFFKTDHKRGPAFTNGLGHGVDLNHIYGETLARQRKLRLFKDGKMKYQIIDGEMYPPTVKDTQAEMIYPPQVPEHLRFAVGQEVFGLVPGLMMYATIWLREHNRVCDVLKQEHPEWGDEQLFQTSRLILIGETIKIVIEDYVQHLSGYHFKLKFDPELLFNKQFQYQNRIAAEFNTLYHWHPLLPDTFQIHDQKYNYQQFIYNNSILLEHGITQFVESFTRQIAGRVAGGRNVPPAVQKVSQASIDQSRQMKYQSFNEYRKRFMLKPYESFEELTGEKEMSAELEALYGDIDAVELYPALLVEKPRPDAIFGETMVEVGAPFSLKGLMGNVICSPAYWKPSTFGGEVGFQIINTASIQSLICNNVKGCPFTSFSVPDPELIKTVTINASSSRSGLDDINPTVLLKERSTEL
Excerpt: (§1) UP736 is a natural product derived from two traditional plants that contain antioxidants and other naturally occurring dietary compounds that aid the body in multiple ways.

COX-1 [4] = target: T2, COX-1 (Homo sapiens, UniProt P23219); conditions: cited from earlier work
COX-1 [5] = target: T2, COX-1; experiment: COX-1 enzymatic inhibition; format: biochemical
Excerpt: as §1

[6] = Oxygen Radical Absorption Capacity (ORAC)
Excerpt: […]. However, it can be preserved by a number of preservatives, including but not limited to stannous chloride (SnCl2), sodium bisulfate/metabisulfite (SBS), and other preservatives.

[7] = Test #3 (n = 5), 3 mg/kg orally
[8] = Test #3 (n = 5), 10 mg/kg orally
[9] = Test #3 (n = 5), 65 mg/kg orally
[10] = Test #3 (n = 5), 100 mg/kg orally
[11] = Test #3 and #4 combined (n = 9-10), 3 mg/kg orally
[12] = Test #3 and #4 combined (n = 9-10), 10 mg/kg orally
[13] = Test #3 and #4 combined (n = 9-10), 65 mg/kg orally
[14] = Test #3 and #4 combined (n = 9-10), 100 mg/kg orally
[15] = Test #4 (n = 5), 3 mg/kg orally
[16] = Test #4 (n = 5), 10 mg/kg orally
[17] = Test #4 (n = 5), 65 mg/kg orally
[18] = Test #4 (n = 5), 100 mg/kg orally

T2 sequence (P23219 24-599): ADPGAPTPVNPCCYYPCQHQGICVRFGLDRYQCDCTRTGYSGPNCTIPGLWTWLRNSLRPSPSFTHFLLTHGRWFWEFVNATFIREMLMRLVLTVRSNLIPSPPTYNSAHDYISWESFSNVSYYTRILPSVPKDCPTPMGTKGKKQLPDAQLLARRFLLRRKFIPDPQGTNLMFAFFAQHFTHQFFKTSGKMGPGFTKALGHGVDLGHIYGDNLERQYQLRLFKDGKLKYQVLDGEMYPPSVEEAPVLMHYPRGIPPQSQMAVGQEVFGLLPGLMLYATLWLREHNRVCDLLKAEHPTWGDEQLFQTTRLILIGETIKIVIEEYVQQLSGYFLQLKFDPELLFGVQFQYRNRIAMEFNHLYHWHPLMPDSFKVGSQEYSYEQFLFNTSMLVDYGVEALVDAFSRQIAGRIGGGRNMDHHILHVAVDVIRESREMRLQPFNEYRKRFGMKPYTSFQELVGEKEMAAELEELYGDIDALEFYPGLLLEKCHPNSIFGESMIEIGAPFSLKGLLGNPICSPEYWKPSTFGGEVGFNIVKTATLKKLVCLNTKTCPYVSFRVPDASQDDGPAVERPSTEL

Question: With `CC(=O)Oc1ccccc1C(=O)O` [Aspirin] as the compound, how does the “% Change Relative to Vehicle Group” value (bleeding time [1]; [7]) read?
Answer: 18.7 ↑ %

Question: What about the “Average Bleeding Time ± SD” value (bleeding time [1]; [7]) of the same compound?
Answer: 77.2 ± 13.0 s

Question: And the “% Change Relative to Vehicle Group” value (bleeding time [1]; [8])?
Answer: 14.5 ↑ %

Question: And the “Average Bleeding Time ± SD” value (bleeding time [1]; [8])?
Answer: 74.4 ± 15.4 s

Question: What about the “% Change Relative to Vehicle Group” value (bleeding time [1]; [9]) of the same compound?
Answer: 61.5* ↑ %

Question: What about the “Average Bleeding Time ± SD” value (bleeding time [1]; [9]) of the same compound?
Answer: 105 ± 15.1 s

Question: And the “% Change Relative to Vehicle Group” value (bleeding time [1]; [10])?
Answer: 83* ↑ %

Question: And the “Average Bleeding Time ± SD” value (bleeding time [1]; [10])?
Answer: 119 ± 14.0 s

Question: And the “% Change Relative to Vehicle Group” value (bleeding time [1]; [11])?
Answer: 21.7 ↑ %

Question: And the “Average Bleeding Time ± SD” value (bleeding time [1]; [11])?
Answer: 83.3 ± 12.6 s

Question: And the “% Change Relative to Vehicle Group” value (bleeding time [1]; [12])?
Answer: 15.6 ↑ %

Question: And the “Average Bleeding Time ± SD” value (bleeding time [1]; [12])?
Answer: 79.5 ± 13.1 s

Question: What about the “% Change Relative to Vehicle Group” value (bleeding time [1]; [13]) of the same compound?
Answer: 46.1 ↑ %

Question: What about the “Average Bleeding Time ± SD” value (bleeding time [1]; [13]) of the same compound?
Answer: 100.5 ± 11.9 s

Question: What about the “% Change Relative to Vehicle Group” value (bleeding time [1]; [14]) of the same compound?
Answer: 78.2 ↑ %

Question: And the “Average Bleeding Time ± SD” value (bleeding time [1]; [14])?
Answer: 122.6 ± 13.9 s

Question: And the “% Change Relative to Vehicle Group” value (bleeding time [1]; [15])?
Answer: 23.1 ↑ %

Question: What about the “Average Bleeding Time ± SD” value (bleeding time [1]; [15]) of the same compound?
Answer: 89.4 ± 9.7 s

Question: What about the “% Change Relative to Vehicle Group” value (bleeding time [1]; [16]) of the same compound?
Answer: 16.5 ↑ %

Question: What about the “Average Bleeding Time ± SD” value (bleeding time [1]; [16]) of the same compound?
Answer: 84.6 ± 9.0 s

Question: What about the “% Change Relative to Vehicle Group” value (bleeding time [1]; [17]) of the same compound?
Answer: 32.2* ↑ %

Question: What about the “Average Bleeding Time ± SD” value (bleeding time [1]; [17]) of the same compound?
Answer: 96 ± 6.4 s

Question: And the “% Change Relative to Vehicle Group” value (bleeding time [1]; [18])?
Answer: 73.8* ↑ %

Question: What about the “Average Bleeding Time ± SD” value (bleeding time [1]; [18]) of the same compound?
Answer: 126.2 ± 14.3 s

Question: What about the “% Change Relative to Vehicle Group” value (bleeding time [2]; 3 mg/kg) of the same compound?
Answer: 0%

Question: What about the “Average Bleeding Time ± SD” value (bleeding time [2]; 3 mg/kg) of the same compound?
Answer: 42.8 ± 26.2 s

Question: What about the “% Change Relative to Vehicle Group” value (bleeding time [2]; 10 mg/kg) of the same compound?
Answer: 0%

Question: What about the “Average Bleeding Time ± SD” value (bleeding time [2]; 10 mg/kg) of the same compound?
Answer: 39.8 ± 22.4 s

Question: And the “% Change Relative to Vehicle Group” value (bleeding time [2]; 30 mg/kg)?
Answer: 27 ↑ %

Question: And the “Average Bleeding Time ± SD” value (bleeding time [2]; 30 mg/kg)?
Answer: 56.4 ± 27.3 s

Question: What about the “% Change Relative to Vehicle Group” value (bleeding time [2]; 100 mg/kg) of the same compound?
Answer: 70* ↑ %

Question: What about the “Average Bleeding Time ± SD” value (bleeding time [2]; 100 mg/kg) of the same compound?
Answer: 75.0 ± 38.8 s

Question: What about the “Agonist Effect” value ([3]; Test #1, aspirin 3.0 μM) of the same compound?
Answer: 0%

Question: What about the “Antagonist Effect” value ([3]; Test #1, aspirin 3.0 μM) of the same compound?
Answer: 1%

Question: And the “Agonist Effect” value ([3]; Test #1, aspirin 30.0 μM)?
Answer: 0%

Question: What about the “Antagonist Effect” value ([3]; Test #1, aspirin 30.0 μM) of the same compound?
Answer: 100%

Question: What about the “Agonist Effect” value ([3]; Test #2, aspirin 3.0 μM) of the same compound?
Answer: 0%

Question: And the “Antagonist Effect” value ([3]; Test #2, aspirin 3.0 μM)?
Answer: 8%

Question: What about the “COX-2 Selectivity Relative COX-1” value (COX-2) of the same compound?
Answer: 0.006

Question: What about the “selective against COX-1” value (COX-1 [4]) of the same compound?
Answer: more than 150 times

Question: For `CC1(C)Cc2c(-c3ccccc3)c(-c3ccc(Cl)cc3)c(CC(=O)O)n2C1` [Licofelone], which “COX-2 Selectivity Relative COX-1” value (COX-2) is on record?
Answer: 1

Question: For `CS(=O)(=O)c1ccc(C2=C(c3ccccc3)C(=O)OC2)cc1` [Rofecoxib], which “COX-2 Selectivity Relative COX-1” value (COX-2) is on record?
Answer: 250

Question: Which results are given for `O=C(O)[C@H]1O[C@@H](Oc2cc3oc(-c4ccccc4)cc(=O)c3c(O)c2O)[C@H](O)[C@@H](O)[C@@H]1O` [baicalin]?
Answer: IC50 for COX-1 (COX-1 [5]): 0.44 μg/mL/unit of enzyme; IC50 for COX-2 (COX-2): 0.28 μg/mL/unit; selectivity against COX-2 (COX-2; COX-1 vs COX-2 IC50 profile): twice

Question: For catechin, which “Oxygen Radical Absorption Capacity (ORAC)” value [6] is on record?
Answer: 20,000
